# Results published in US20040023884A1, “Biologically active peptides from functional domains of bactericidal/permeability-increasing protein and uses thereof” (priority 1993, published 2004).
# Bridge positions count the residues as written; N and C are the ends. Square brackets hold non-standard residues; d marks the D form. Ends that are not written are not given here. Peptide text beside a SMILES is read from it. 1Nal = N[C@@H](Cc1cccc2ccccc12)C(=O)O
# Columns and labels:
# [1] = tested on: rough mutant E. coli J5 bacteria; test: Radial diffusion bactericidal assay, E. coli J5; format: cell-based; conditions: radial diffusion; for pmol added to well to achieve a 30 mm^2 bactericidal zone, E. coli J5: PROBIT analysis, E. coli J5 (rough)
# Experimental: BPI proteolytic fragments produced according to Example 1 were screened for bactericidal effects using rough mutant E. coli J5 bacteria in a radial diffusion assay. Specifically, an overnight culture of E. coli J5 was diluted 1:50 into fresh tryptic soy broth and incubated for 3 hours at 37° C. to attain log phase growth of the culture. Bacteria were then pelleted at 3,000 rpm for 5 minutes in a Sorvall RT6000B centrifuge (Sorvall Instruments, Newton, Conn.). 5 mL of 10 mM sodium phosphate buffer (pH 7.4) was added and the preparation was re-pelleted. […] The bacteria were diluted to 4×10^6 CFU/mL in 10 mL of molten underlayer agarose (at approximately 45° C.) and inverted repeatedly to mix in 15 mL polypropylene tubes conventionally used for this purpose.
# The entire contents of such tubes were then poured into a level square petri dish and distributed evenly by rocking the dish side-to-side. […] A series of wells were then punched into the hardened agarose using a sterile 3 mm punch attached to a vacuum apparatus. The punch was sterilized with 100% alcohol and allowed to air dry prior to use to avoid contaminating the bacterial culture.
# 5 or 10 μL of each of the BPI fragments were carefully pipetted into each well. As a negative control, dilution buffer (pH 8.3) was added to a separate well, and rBPI23 at concentrations of 5 μg/mL and 1 μg/mL were also added as positive controls. Each plate was incubated at 37° C. for 3 hours, and then 10 mL of molten overlayer agarose (at approximately 45° C.) was added into the level petri dish, allowed to harden and incubated overnight at 37° C. […] The bacterial zones were measured with a micrometer.
# Staphylococcus aureus = test: Radial diffusion bactericidal assay, Staphylococcus aureus; format: cell-based; conditions: radial diffusion; PROBIT analysis; S. aureus
# [2] = tested on: E. coli 0111:B4 (smooth) bacteria; test: Radial diffusion bactericidal assay, E. coli 0111:B4; format: cell-based; conditions: radial diffusion; PROBIT analysis; E. coli O111:B4 (smooth)
# Candida albicans = format: cell-based
# [3] = 3H-heparin binding assay (affinity and capacity); conditions: for Heparin Capacity: heparin bound at saturation; for Kd: read-out: Heparin Affinity
# Experimental: Briefly, each fragment was added to wells of a 96-well microtiter plate having a polyvinylidene difluoride membrane (Immunobilon-P, Millipore, Bedford, Mass.) disposed at the bottom of the wells. […] Positive control wells contained varying amounts of rBPI23. […] DuPont-NEN, Wilmington, Del.) were made in the blocking buffer and incubated in the BPI peptide-containing wells for one hour at 4° C. The unbound heparin was aspirated and the wells were washed three times with blocking buffer, dried and removed for quantitation in a liquid scintillation counter (Model 1217, LKB, Gaithersburg, Md.). Although BSA in the blocking buffer did show a low affinity and capacity to bind heparin, this was considered physiologically irrelevant and the background was routinely subtracted from the test compound signal.
Compound,"pmol added to well to achieve a 30 mm^2 bactericidal zone, E. coli J5 [1]","pmol added to well to achieve a 30 mm^2 bactericidal zone, S. aureus (Staphylococcus aureus)","pmol added to well to achieve a 30 mm^2 bactericidal zone, E. coli O111:B4 [2]",MIC C. alb (Candida albicans) [µg/mL],Heparin Capacity [3] [ng],Kd [3] [nM],bactericidal activity (in words) ([1]; E. coli J5),heparin binding capacity (in words) [3]
"CC[C@H](C)[C@H](NC(=O)[C@H](CC(C)C)NC(=O)[C@H](Cc1cccc2ccccc12)NC(=O)CNC(=O)[C@@H](NC(=O)[C@H](CCCCN)NC(=O)[C@H](CO)NC(=O)[C@@H](N)CCCCN)C(C)C)C(=O)N[C@@H](CCC(N)=O)C(=O)N[C@@H](CC(C)C)C(=O)N[C@@H](Cc1ccccc1)C(=O)N[C@@H](Cc1cccc2ccccc12)C(=O)N[C@@H](CCCCN)C(=O)N[C@@H](CCCCN)C(=O)O [BPI.148, KSKVGAβ-(1-naphthyl)LIQLFAβ-(1-naphthyl)KK] (H-KSKVG[1Nal]LIQLF[1Nal]KK-OH; N-terminus and C-terminus assumed)","4,206.57 pmol",b (no detectable activity up to 5 μg/well),b (no detectable activity up to 5 μg/well),50.00,,,,
CC(C)C[C@H](NC(=O)[C@H](Cc1ccccc1)NC(=O)[C@H](CCCNC(=N)N)NC(=O)[C@H](Cc1cccc2ccccc12)NC(=O)[C@H](Cc1cccc2ccccc12)NC(=O)[C@H](C)NC(=O)[C@H](CCCCN)NC(=O)[C@H](Cc1c[nH]c2ccccc12)NC(=O)[C@H](CCCCN)NC(=O)[C@H](CCCCN)NC(=O)[C@H](CC(C)C)NC(=O)[C@H](Cc1ccccc1)NC(=O)[C@H](CCCNC(=N)N)NC(=O)[C@H](Cc1cccc2ccccc12)NC(=O)[C@H](Cc1cccc2ccccc12)NC(=O)[C@H](C)NC(=O)[C@H](CCCCN)NC(=O)[C@H](Cc1c[nH]c2ccccc12)NC(=O)[C@@H](N)CCCCN)C(=O)N[C@@H](CCCCN)C(=O)O [BPI.156] (H-KWKA[1Nal][1Nal]RFLKKWKA[1Nal][1Nal]RFLK-OH; N-terminus and C-terminus assumed),,,,>100.00,,,,
C[C@@H]1NC(=O)[C@H](CCCCN)NC(=O)[C@H](Cc2c[nH]c3ccccc23)NC(=O)[C@H](CCCCN)NC(=O)[C@@H](N)CSSC[C@@H](C(N)=O)NC(=O)[C@H](Cc2ccccc2)NC(=O)[C@H](CCCNC(=N)N)NC(=O)[C@H](CCCCN)NC(=O)[C@H](CCC(N)=O)NC1=O [BPI.169] (H-CKWKAQKRFC-NH2; disulfide 1-10; N-terminus and C-terminus assumed),"4,893.83 pmol","17,281.61 pmol","36,025.95 pmol",>100.00,,,,
KSKVKALIQLFHKK [BPI.161],"1,201.79 pmol","100,476.32 pmol",b (no detectable activity up to 5 μg/well),3.13,,,,
KWKAQKRF [BPI.167],"25,489.99 pmol",b (no detectable activity up to 5 μg/well),b (no detectable activity up to 5 μg/well),>50.00,,,,
IKISGKWKAQKRAβ-(3-pyridyl)LK [BPI.72],"2,925.67 pmol",b (no detectable activity up to 5 μg/well),b (no detectable activity up to 5 μg/well),,102.8,145,,
KSKVKWLIKLFFKFKSKVKWLIKLFFKF [BPI.101],"1,329.30 pmol","4,388.20 pmol","3,631.70 pmol",,210.9,1900,,
KWKAQWRFLKKWKAQWRFLKKWKAQWRFLK [BPI.99],722.90 pmol,"37,942,676.00 pmol","60,037.52 pmol",,971.4,9100,,
CIKISGKWKAQKRFLK [BPI.58],"1,050.11 pmol",b (no detectable activity up to 5 μg/well),b (no detectable activity up to 5 μg/well),,231.2,194,highly bactericidal,extremely high heparin capacity
CC[C@H](C)[C@H](N)C(=O)N[C@@H](CCCCN)C(=O)N[C@H](C(=O)N[C@@H](CO)C(=O)NCC(=O)N[C@@H](CCCCN)C(=O)N[C@@H](Cc1c[nH]c2ccccc12)C(=O)N[C@@H](CCCCN)C(=O)N[C@@H](C)C(=O)N[C@@H](Cc1cccc2ccccc12)C(=O)N[C@@H](Cc1cccc2ccccc12)C(=O)N[C@@H](CCCNC(=N)N)C(=O)N[C@@H](Cc1ccccc1)C(=O)N[C@@H](CC(C)C)C(=O)N[C@@H](CCCCN)C(=O)N[C@@H](CCCCN)C(=O)N[C@@H](CO)C(=O)N[C@@H](CCCCN)C(=O)N[C@H](C(=O)NCC(=O)N[C@@H](Cc1c[nH]c2ccccc12)C(=O)N[C@@H](CC(C)C)C(=O)N[C@H](C(=O)N[C@@H](CCC(N)=O)C(=O)N[C@@H](CC(C)C)C(=O)N[C@@H](Cc1ccccc1)C(=O)N[C@@H](Cc1c[nH]cn1)C(=O)N[C@@H](CCCCN)C(=O)N[C@@H](CCCCN)C(=O)O)[C@@H](C)CC)C(C)C)[C@@H](C)CC [BPI.158] (H-IKISGKWKA[1Nal][1Nal]RFLKKSKVGWLIQLFHKK-OH; N-terminus and C-terminus assumed),,,,>100.00,,,,
IKKRAISFLGKKWQK [BPI.75],"2,708.40 pmol","9,508.60 pmol",b (no detectable activity up to 5 μg/well),,119.8,96,,
KSKVKWLIKLFHKK [BPI.100],407.74 pmol,b (no detectable activity up to 5 μg/well),"7,342.90 pmol",,314.0,2930,,
IAISGKWKAQKRFLA [BPI.60],"3,782.80 pmol",b (no detectable activity up to 5 μg/well),b (no detectable activity up to 5 μg/well),,120.3,64.8,,
IKISGKWKAKKRFLK [BPI.79],"5,827.30 pmol",b (no detectable activity up to 5 μg/well),b (no detectable activity up to 5 μg/well),,110.2,199,,
IKISGKWKAKQRFLK [BPI.56],"1,387.00 pmol",b (no detectable activity up to 5 μg/well),b (no detectable activity up to 5 μg/well),,135.5,115,,
